Test results: PubChem BioAssay (NCI)
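Grown in 96-well plates, cells were treated for 48 hours with each compound at five concentrations. Insufficient inhibition: endpoint recorded as highest concentration tested. The concentration for 50% growth inhibition is given as GI50. TGI: concentration producing complete growth inhibition.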

Key:
Assay in all cases: growth of human tumour cells (NCI), 48 h
COLO 205 colon = tested on: COLO 205 colon
HCC-2998 colon = tested on: HCC-2998 colon
HOP-62 NSCLC = tested on: HOP-62 NSCLC
K-562 leukemia = tested on: K-562 leukemia
MDA-MB-435 = tested on: MDA-MB-435
SF-539 CNS = tested on: SF-539 CNS
SNB-75 CNS = tested on: SNB-75 CNS
UACC-257 melanoma = tested on: UACC-257 melanoma

| SMILES | GI50 (COLO 205 colon) | TGI (COLO 205 colon) | GI50 (HCC-2998 colon) | TGI (HCC-2998 colon) | GI50 (HOP-62 NSCLC) | TGI (HOP-62 NSCLC) | GI50 (K-562 leukemia) | TGI (K-562 leukemia) | GI50 (MDA-MB-435) | TGI (MDA-MB-435) | GI50 (SF-539 CNS) | TGI (SF-539 CNS) | GI50 (SNB-75 CNS) | TGI (SNB-75 CNS) | GI50 (UACC-257 melanoma) | TGI (UACC-257 melanoma) |
| --- | --- | --- | --- | --- | --- | --- | --- | --- | --- | --- | --- | --- | --- | --- | --- | --- |
| O=C1c2ccccc2C(=O)N1c1ccc(S(=O)(=O)Nc2ncccn2)cc1 | > 100 µM | > 100 µM | 22.7 µM | > 100 µM | > 100 µM | > 100 µM | > 100 µM | > 100 µM | > 100 µM | > 100 µM | > 100 µM | > 100 µM | > 100 µM | > 100 µM | > 100 µM | > 100 µM |
| COc1cc(CSc2nc3ccc(C)cc3c(=O)n2Cc2ccccc2)cc(OC)c1OC | 1.05 µM | 3.13 µM | 3.96 µM | > 100 µM | 3.21 µM | 21.4 µM | 0.624 µM | > 100 µM | 0.337 µM | 2.62 µM | 2.26 µM | 8.32 µM | 0.804 µM | 4.21 µM | 6.73 µM | > 100 µM |
| CCCCCCCCCCCCCCCc1cc(O)ccc1N | > 9.96 µM | > 62.5 µM | > 100 µM | > 100 µM | > 100 µM | > 100 µM | 10.7 µM | > 38 µM | > 100 µM | > 100 µM | 0.702 µM | 2.19 µM | 4.76 µM | 68.9 µM | 11.3 µM | > 80.1 µM |
| O=C(Nc1cc(C(F)(F)F)ccc1F)Nc1n[nH]c2ccccc12 | > 100 µM | > 100 µM | > 100 µM | > 100 µM | > 100 µM | > 100 µM | > 100 µM | > 100 µM | > 100 µM | > 100 µM | > 100 µM | > 100 µM | 40.1 µM | > 100 µM | > 100 µM | > 100 µM |
| COc1cnc2c(c1)C(=O)c1c-2n(CCCn2ccnc2)c(=O)c2cc(Cl)ccc12 | 0.0332 µM | 2.09 µM | 0.382 µM | > 100 µM | 0.0211 µM | 0.0879 µM | 0.0347 µM | > 100 µM | 0.145 µM | 1.29 µM | 0.0388 µM | 0.321 µM | 0.219 µM | 18.9 µM | 0.0904 µM | 1.91 µM |
| COC(=O)c1ccccc1NC(=O)/C(=N\NC(C)(C)C)C(C#N)c1nc(-c2ccc([N+](=O)[O-])cc2)cs1 (centres undefined) |  | > 100 µM |  | > 100 µM |  |  |  | > 100 µM |  | > 100 µM |  | > 100 µM |  | > 100 µM |  | > 100 µM |
| CN1CCN(c2ccc3nc(-c4cc(C(C)(C)C)c(O)c(C(C)(C)C)c4)[nH]c3c2)CC1 | 2.02 µM | 4.26 µM | 1.85 µM | 3.43 µM | 2.29 µM | 5 µM | 1.94 µM | 4.97 µM | 1.73 µM | 3.16 µM | 1.79 µM | 3.35 µM | 1.42 µM | 3.65 µM | 2 µM | 3.97 µM |
| COc1cc(OC)c2c(=O)c(O)c(-c3ccc(OC)c(OC)c3)oc2c1 |  | > 100 µM |  | 9.34 µM |  | 19.2 µM |  | > 100 µM |  | > 31.6 µM |  | > 100 µM |  | > 100 µM |  | > 100 µM |
| O=C1OC(c2ccc(O)c(-c3ccccc3)c2)(c2ccc(O)c(-c3ccccc3)c2)c2c(Cl)c(Cl)c(Cl)c(Cl)c21 |  | > 100 µM |  | > 100 µM |  | > 100 µM |  | > 100 µM |  | > 100 µM |  | > 100 µM |  | > 100 µM |  | > 100 µM |
| C=CC1CC12C(=O)C1OC2(C)C2C(=O)c3c(ccc4c3ccc3ccccc34)C(=O)C12 (centres undefined) | 51 µM | > 100 µM | 94.6 µM | > 100 µM | > 100 µM | > 100 µM | 26.1 µM | > 100 µM | 41.4 µM | > 100 µM | 47.2 µM | > 100 µM | > 100 µM | > 100 µM | 89.4 µM | > 100 µM |
| CC(ONC(=O)c1cc(C(F)(F)F)cc(C(F)(F)F)c1)C(=O)Nc1ccc(Cl)cc1 (centres undefined) | 5.32 µM | 25.8 µM | 4.16 µM | 17 µM | 8.45 µM | 24.6 µM | 5.75 µM | > 45.5 µM | 4.39 µM | 29.7 µM | 4.82 µM | 19 µM | 15 µM | 70.7 µM | 3.83 µM | 20.1 µM |
| CC1(C)N=C(N)N=C(N)N1c1ccc(F)c(C(F)(F)F)c1 | 5.11 µM | > 100 µM | 1.85 µM | > 100 µM |  | > 100 µM | 0.121 µM | > 100 µM | 0.239 µM | > 100 µM | 0.71 µM | > 100 µM |  | > 100 µM | > 57.8 µM | > 100 µM |
| CC(=O)OC1CC2CCC1(C)C2(C)C (centres undefined) |  | > 100 µM |  | > 100 µM |  | > 100 µM |  | > 100 µM |  | > 100 µM |  | > 100 µM |  | > 100 µM |  | > 100 µM |
| C1COC(NC(C2CC2)C2CC2)=N1 |  | > 100 µM |  | > 100 µM |  |  |  | > 100 µM |  | > 100 µM |  | > 100 µM |  | > 100 µM |  | > 100 µM |
| Nc1cc(-c2ccccc2)ccc1O | > 100 µM | > 100 µM |  |  | > 100 µM | > 100 µM | > 100 µM | > 100 µM | > 100 µM | > 100 µM | > 100 µM | > 100 µM | > 100 µM | > 100 µM | > 100 µM | > 100 µM |
| O=C(N/N=C1\CCc2ccccc2C1)N/N=C1\CCc2ccccc2C1 |  | > 10 µM |  | > 10 µM |  | > 10 µM |  | > 10 µM |  | > 10 µM |  |  |  |  |  | > 10 µM |
| COc1ccc(O)c(C(=O)c2ccc(C(=O)O[C@@H]3CCCNC[C@H]3NC(=O)c3ccncc3)cc2)c1F | 1.16 µM | > 25 µM | 2.08 µM | > 25 µM | 0.514 µM | > 25 µM | 0.723 µM | > 25 µM | 1.9 µM | > 25 µM | 0.0852 µM | 0.779 µM | 0.0788 µM | > 7.51 µM |  |  |
